Measurements: patent publication US20090099207A1, “Cyclic sulfones useful as BACE inhibitors” (priority 2006, published 2009)

Key:
[1] = Test 4: Inhibition of cellular release of amyloid peptide 1-40; format: cell-based, Chinese hamster; conditions: Cricetulus griseus; CHO cells transfected with APP gene; 24 hours with test compound; amyloid peptide 1-40 in supernatant by sandwich ELISA
From the text: Test 4: Inhibition of Cellular Release of Amyloid Peptide 1-40

SMILES | melting point | IC50 [1]
COc1ccc(C[C@@H]2CS(=O)(=O)C[C@H](NCc3cccc(C(C)C)c3)[C@H]2O)cc1Br.Cl | 173 to 175 °C | 
CC(C)c1cccc(CN[C@H]2CS(=O)(=O)C[C@@H](Cc3ccccc3)[C@@H]2O)c1.Cl (hydrate or solvate) | 239 to 242 °C | 
CO[C@@H](C)COCc1cccc(C[C@@H]2CS(=O)(=O)C[C@H](NCc3cccc(C(C)C)c3)[C@H]2O)c1 [Example 26, (3R,4S,5S)-3-(3-Isopropyl-benzylamino)-5-[3-((S)-2-methoxy-propoxy-methyl)-benzyl]-1,1-dioxo-hexahydro-1lambda*6*-thiopyran-4-ol] |  | 4.7 µM
CC(C)c1cccc(CN[C@H]2CS(=O)(=O)C[C@@H](Cc3ccc(Nc4ccncn4)cc3)[C@@H]2O)c1 [Example 44, (3R,4S,5S)-3-(3-Isopropyl-benzylamino)-1,1-dioxo-5-[4-(pyrimidin-4-ylamino)-benzyl]-hexahydro-1lambda*6*-thiopyran-4-ol] | 136 to 139 °C | 
